Measurements reported in US9163032B2, “Esters of DCPLA and methods of treatment using the same” (Blanchette Rockefeller Neurosciences Institute, priority 2011, dated 2015).

Legend:
rat hippocampal neurons = assay: Dendritic branching in seven day old rat hippocampal neurons (confocal microscopy); type: cell-based; settings: 100 nM, 48 hr
Description: The effect of DCPLA-ME on development of primary neurons was investigated. Seven day old rat hippocampal neurons were treated with DCPLA-ME (100 nM) for 48 hr. Immunofluorescence and confocal microscopy-cells were grown in four chambered slides (Nunc, USA) at low density. For immunofluorescence staining the cells were washed with PBS (pH 7.4) and fixed with 4% paraformaldehyde for 4 min. Following fixation, cells were blocked and permeabilized with 5% serum and 0.3% Triton X-100 in 1×PBS for 30 min. Cells were washed 3× with 1×PBS and incubated with primary antibodies for 1 hr at 1:100 dilution. After the incubation slides were again washed 3× in 1×PBS and were incubated with the FITC anti-rabbit IgG and Rhodamine anti-mouse IgG for 1 hr at 1:400 dilution. Cells were further washed and mounted in Pro Long Gold antifade mounting solution (Invitrogen, USA). Stained cells were viewed under the LSM 710 Meta confocal microscope (Zeiss) at 350 nm, 490 nm and 540 nm excitation and 470 nm, 525 nm and 625 nm emission for DAPI, FITC and rhodamine respectively. Six individual fields at 20× or 63× oil lens magnification were analyzed for the mean fluorescence intensity (MFI) in each channel. The colocalization correlation was generated by the ZEN software (Zeiss).

Wistar rats [1] = assay: Visible platform test (sensorimotor activity and escape motivation); type: in vivo, rat; settings: oral DCPLA-ME 5.3 or 16.0 mg/kg
Description: (§1) Water maze spatial learning and memory task (2 training trials/day for 4 days) was used to evaluate effects of oral DCPLA-ME on learning and memory in rats. A visible platform test was conducted after the end of the experiments to evaluate whether the treatment might result in an altered sensorimotor activity and escape motivation.
At the end of the experiments, the rats were also tested in a visible platform test to evaluate whether the treatment might result in an altered sensorimotor activity and escape motivation.

[2] = test system: primary human cortical neurons; assay: 40 day culture of human primary cortical neurons: survival, synapses, branching; type: cell-based; settings: 100 nM
Description: To examine the effects of PKC-ε activation, cultured human cortical neurons in serum-free artificial medium were exposed to 100 nM DCPLA-ME added every three days, along with 50% medium replacement, for 40 days. More specifically, human primary cortical neurons were grown in Neuronal Medium (ScienCell Cat No#1521) containing neuronal growth supplement (NGS) (Sciencell Cat No#1562).
Cells were plated on poly-l-lysine (0.001%) coated plates at a density of >10000 cells/cm2. Half of the media was replaced by new media every 3 days. DCPLA-ME was dissolved in 100% ethanol and added at 100 nM final concentration. Fresh DCPLA-ME (100 nM) was added every 3 days during media change. The experiments were continued for 40 days.
Human primary neurons (ScienCell Research Laboratories, USA) were thawed and plated on poly-L-lysine coated plates at a density of 10,000 cells per cm^2 and were maintained in neuronal medium (DMEM+high glucose+neuronal growth supplement, ScienCell Research Laboratories, USA) following the recommended method. Primary human neurons were then treated with either DCPLA-ME (100 nM) or bryostatin 1 (0.27 nM) for 40 days. Fresh drug was added every third day with 50% media change.

Wistar rats [3] = assay: Water maze spatial learning and memory task; type: in vivo, rat; settings: for water maze learning performance (escape latency) vs control: 8 doses, rats
Description: as §1
Male adult Wistar rats (200-250 g) were housed in a temperature-controlled (20-24° C.) room for a week, allowed free access to food and water, and kept on a 12-h light/dark cycle. Rats were anesthetized with sodium pentobarbital (60 mg/kg i.p) and placed in a stereotactic apparatus (Kopf Instruments, Tujunga, Calif.). The core temperature of rats was monitored and kept constant (38.0±0.5° C.) with warming light and pad. Two stainless steel guide cannulas were placed with the tips positioned at the coordinates (anterior-posterior, 0.5 mm; lateral, 1.5 mm; horizontal, 3.2 mm), under aseptic conditions. At the end of surgery and under appropriate anesthesia, rats received (s.c.) banamine (1 mg/kg) and ketoprofen (5 mg/kg) in lactate/Ringer's solution. A 7-day recovery period was allowed before any further experimentation.
On the first day of experiments, all rats were randomly assigned to different groups and swam for 2 min in a 1.5-(diameter)×0.6-m (depth) pool (22±1° C.). On the following day, rats were trained in a two-trial per day task for four consecutive days. Each training trial lasted for up to 2 min, during which rats learned to escape from water by finding a hidden platform that was placed at a fixed location and submerged 1 cm below the water surface. The navigation of the rats was tracked by a video camera. The escape latency and the route of rats' swimming across the pool to the platform were recorded. The quadrant test (1 min) was performed after removing the platform, 24 hr after the last training trial. […]
Data were analyzed using a target quadrant ratio (dividing the target quadrant distance by the average of the non-target quadrant values during the probe test; FIG. 14D).

[4] = test system: differentiated human SH-SY5Y cells; assay: Neuroprotection against ASPD, MTT assay, differentiated SH-SY5Y cells; type: cell-based; settings: ASPD alone, compared to untreated cells
Description: For differentiation, SH-SY5Y cells were maintained in medium containing 2% serum and treated with 10 μM all-trans-retinoic acid (RA) for 72 hr. Thereafter, the cells were treated with 0.27 nM Bryostatin 1 for 72 hrs. The medium was changed every 3 days with fresh supplementation of RA.
Viability of cells was measured by MTT assay. MTT (i.e., 3-(4,5-dimethylthiazol-2-yl)-2,5-diphenyltetrazolium bromide) is a tetrazolium salt that is cleaved to formazan by the succinate dehydrogenase, which is only active in viable cells. After solubilization of the formazan, the amount of dye can be quantified with a microplate reader at 570 nm along with a reference of 630 nm. For the MTT assay, 5×10^4 primary rat hippocampal neurons from 18-day-old embryonic Sprague-Dawley rat brains or SH-SY5Y cells were plated on each well of 24-well plates coated with poly-D-lysine. After treatment, the cells were washed with 1× PBS and were incubated with 200 μl of 1 mg/ml MTT solution (Sigma, USA) at 37° C. for 2 hr. Then the MTT-solution was removed and the cells were lysed with 200 μl isopropanol containing 0.04 M HCl and […] for 10 min. Finally, the reading was taken at 570 nm and 630 nm. All the samples were done in triplicate and the data were represented as the percentage of control.
In ASPD-treated cells, the viability was 77.15±0.49% (p<0.0001, n=6) compared to the untreated cells.

Compound | Synaptophysin staining (rat hippocampal neurons) | sensorimotor ability and escape motivation (Wistar rats [1]) | number of synapses ([2]; 30 day old neurons) | Expression levels of PKCε, PSD-95 and synaptophysin ([2]; 40 days, compared to control or bryostatin 1-treated cells) | water maze learning performance (escape latency) vs control (Wistar rats [3]; 5.3 mg/kg intragastric) | water maze learning performance (escape latency) vs control (Wistar rats [3]; 16.0 mg/kg intragastric) | memory retention, target quadrant ratio vs control (Wistar rats [3]; 16.0 mg/kg intragastric, probe test 24 hr after last trial) | viability of SH-SY5Y cells [4]
CCCCCC1CC1CC1CC1CCCCCCCC(=O)OC (centres unmarked) [DCPLA-ME, DCPLA methyl ester] | increased | did not affect rats' sensorimotor ability and motivation for an escape | significantly increased | significantly higher | did not reach a significant level | improved learning performance | significant difference | –
ASPD: Amylospheroids from Aβ1-42, 100 kDa filter retentate, containing 39 monomers on average | – | – | – | – | – | – | – | 77.15±0.49%
